Data taken from patent US20220016092A1, “METHODS FOR TREATING SYMPTOMS AND DISORDERS ASSOCIATED WITH LYSOSOMAL STORAGE DISEASES” (GENZYME CORPORATION, priority 2019, published 2022).
Values joined by “and” are separate entries in the source; they are usually repeats but may differ in a detail not shown here. Identical values can stand only once. Like-named read-outs stand apart in the source and are kept apart here.

Assays:
Type in all cases: in vivo, human
[1] = test system: GL-3 inclusions in skin cells; experiment: Clinical study in Fabry disease patients: skin GL-3 inclusion score by light microscopy
Procedure: A three-year open-label investigation of Compound 2 in young classic Fabry disease patients was conducted in order to evaluate the long-term safety, pharmacodynamics and exploratory efficacy of Compound 2 in adult male Fabry patients. Eleven subjects enrolled in the study, and seven subjects completed all aspects of the study. All subjects were males diagnosed with classic Fabry disease confirmed by genotype and residual alpha-galactosidase activity below detection levels (9 of the 11 had nonsense mutation in the GLA gene). All subjects had lyso-GL3 levels in plasma of at least 65 ng/mL and had no prior Fabry disease-specific treatment. The median age of subject was 24 years (range 19-37).
Each sample was scored independently by 3 pathologists for the presence of GL-3 inclusions on a four-point scale, and rated as 0 (no/trace), 1 (mild), 2 (moderate), or 3 (severe) according to Eng et al., N. Engl. J. Med. 345:9-16 (2001). A single score per patient per time point was derived by taking the score rated by the majority of the three pathologists. If a majority score could not be derived, then the median score was used (resulting in some fractional scores). Plasma samples were also analyzed for GL-3, lyso-GL-3, GL-1 and GM3 at baseline and weeks 12, 26, 52 and 156. Pain scores and abdominal symptoms were analyzed at baseline and weeks 12, 26, 52, 104 and 156 using the SF-36 scoring protocol.

[2] = test system: chitotriosidase (CHITO), GM3, GPNMB, ceramide; experiment: Clinical study in GD-3 patients: exploratory biomarkers
Procedure: Four exploratory biomarkers were quantified in plasma, serum and/or CSF of GD3 patients at week 4 and week 26: chitotriosidase (CHITO; an enzyme known to be elevated in GD patients) was measured in CSF and serum; GM3 (a glycosphingolipid marker known to be elevated in GD patients) was measured in CSF and plasma; and glycoprotein nonmetastatic melanoma protein B (GPNMB; reportedly a biomarker of neuropathic GD3) was measured in CSF. The results are shown in the table below as percent change from baseline at week 4 and week 26 for each parameter:
In addition, exploratory biomarkers were quantified in CSF of GD3 patients: ceramide (the precursor of GL-1), chitotriosidase (CHITO), GM3, and GPNMB.

[3] = Study 1 Part 1: ascending single-dose pharmacokinetics in healthy volunteers; conditions: healthy men; for Tmax: male, human, plasma, read-out: tmax, median
Excerpt: Study 1 was a 2-part single-center trial in healthy adult male volunteers.
Part 1 of the study enrolled and randomized 55 healthy men (placebo, n=14; 2-, 5-, 15, 25-, 50, and 100-mg doses, n=6 each; 150-mg dose, n=5). Eight healthy men participated in Part 2. […]

[4] = test system: adult patients with Gaucher disease Type 3; experiment: Clinical study in GD-3 patients: trail making test (TMT); conditions: 15 mg/day + imiglucerase
Excerpt: The trail making test (TMT) was used to evaluate cognitive function in the patients. The TMT is one of the most widely used neuropsychological tests and is included in most test batteries. The TMT is a diagnostic tool to assess general intelligence and cognitive dysfunctions (Tombaugh et al. [2004]; Cavaco et al. [2013]). In part A of the TMT, subjects are asked to connect a cluster of numbers in ascending order. This task is a combination of visual search and general visual and motor processing speed. Part B presents a sequence which alternates between numbers and letters. Subjects must actively switch between both categories when connecting them in ascending, but alternating order.
TMT-A evaluates mainly perceptual and psychomotor speed. TMT-B assesses more specifically mental flexibility and shifting abilities. TMT B minus TMT A score is used to remove the variance attributable to the graphomotor and visual scanning components of TMT A. This derived score reflects the unique task requirements of TMT B.

[5] = Fabry patients, 15 mg/day oral, by week 156
[6] = Fabry, 15 mg/day, Endothelial Cells, Deep Vessels, 12 weeks
[7] = Fabry, 15 mg/day, Endothelial Cells, Deep Vessels, 26 weeks
[8] = Fabry, 15 mg/day, Endothelial Cells, Deep Vessels, 52 weeks
[9] = Fabry, 15 mg/day, Endothelial Cells, Deep Vessels, 156 weeks
[10] = Fabry, 15 mg/day, Endothelial Cells, Superficial Vessels, 12 weeks
[11] = Fabry, 15 mg/day, Endothelial Cells, Superficial Vessels, 26 weeks
[12] = Fabry, 15 mg/day, Endothelial Cells, Superficial Vessels, 52 weeks
[13] = Fabry, 15 mg/day, Endothelial Cells, Superficial Vessels, 156 weeks
[14] = Fabry, 15 mg/day, Perineurium Cells, 12 weeks
[15] = Fabry, 15 mg/day, Perineurium Cells, 26 weeks
[16] = Fabry, 15 mg/day, Perineurium Cells, 52 weeks
[17] = Fabry, 15 mg/day, Perineurium Cells, 156 weeks
[18] = Fabry, 15 mg/day, Smooth Muscle Cells, Deep Vessels, 12 weeks
[19] = Fabry, 15 mg/day, Smooth Muscle Cells, Deep Vessels, 26 weeks
[20] = Fabry, 15 mg/day, Smooth Muscle Cells, Deep Vessels, 52 weeks
[21] = Fabry, 15 mg/day, Smooth Muscle Cells, Deep Vessels, 156 weeks
[22] = 15 mg/day + imiglucerase, Week 4, individual Patients 1-5
[23] = 15 mg/day + imiglucerase, Week 26, individual Patients 1-5
[24] = single oral dose 2 mg, fasted (N = 6)
[25] = single oral dose 5 mg, fasted (N = 6)
[26] = single oral dose 15 mg, fasted (N = 6)
[27] = single oral dose 25 mg, fasted (N = 6)
[28] = single oral dose 50 mg, fasted (N = 6)
[29] = single oral dose 100 mg, fasted (N = 6)
[30] = single oral dose 150 mg, fasted (N = 5)

CC(C)(NC(=O)O[C@@H]1CN2CCC1CC2)c1csc(-c2ccc(F)cc2)n1 [Compound 2, (S)-quinuclidin-3-yl 2-(2-(4-fluorophenyl)thiazol-4-yl)propan-2-ylcarbamate]
Patients with a 1-point reduction in skin GL-3 score [1, 5]: five | Patients with complete clearance of GL-3 inclusions [1, 5]: two | Patients with no change in skin GL-3 score [1, 5]: one | Number of patients: skin GL-3 Score 1 unchanged [1, 6]: 1/9 (11%) | Number of patients: skin GL-3 Score 2 dropped to 1 [1, 6]: 2/9 (22%) | Number of patients: skin GL-3 Score 2 unchanged [1, 6]: 6/9 (67%) | Number of patients: skin GL-3 Score 1 unchanged [1, 7]: 1/9 (11%) | Number of patients: skin GL-3 Score 2 dropped to 1 [1, 7]: 2/9 (22%) | Number of patients: skin GL-3 Score 2 unchanged [1, 7]: 6/9 (67%) | Number of patients: skin GL-3 Score 2 dropped to 1 [1, 8]: 3/6 (50%) | Number of patients: skin GL-3 Score 2 dropped to 1.5 [1, 8]: 1/6 (17%) | Number of patients: skin GL-3 Score 2 unchanged [1, 8]: 2/6 (33%) | Number of patients: skin GL-3 Score 1 unchanged [1, 9]: 1/6 (17%) | Number of patients: skin GL-3 Score 2 dropped to 0.5 [1, 9]: 1/6 (17%) | Number of patients: skin GL-3 Score 2 dropped to 1 [1, 9]: 3/6 (50%) | Number of patients: skin GL-3 Score 2 unchanged [1, 9]: 1/6 (17%) | Number of patients: skin GL-3 Score 1 raised to 2 [1, 10]: 1/9 (11%) | Number of patients: skin GL-3 Score 1 unchanged [1, 10]: 4/9 (44%) | Number of patients: skin GL-3 Score 2 dropped to 1 [1, 10]: 3/9 (33%) | Number of patients: skin GL-3 Score 2 unchanged [1, 10]: 1/9 (11%) | Number of patients: skin GL-3 Score 1 raised to 2 [1, 11]: 1/9 (11%) | Number of patients: skin GL-3 Score 1 unchanged [1, 11]: 4/9 (44%) | Number of patients: skin GL-3 Score 2 dropped to 1 [1, 11]: 3/9 (33%) | Number of patients: skin GL-3 Score 2 unchanged [1, 11]: 1/9 (11%) | Number of patients: skin GL-3 Score 1 unchanged [1, 12]: 3/6 (50%) | Number of patients: skin GL-3 Score 2 dropped to 1 [1, 12]: 2/6 (33%) | Number of patients: skin GL-3 Score 2 unchanged [1, 12]: 1/6 (17%) | Number of patients: skin GL-3 Score 1 dropped to 0 [1, 13]: 2/6 (33%) | Number of patients: skin GL-3 Score 1 unchanged [1, 13]: 1/6 (17%) | Number of patients: skin GL-3 Score 2 dropped to 1 [1, 13]: 3/6 (50%) | Number of patients: skin GL-3 Score 1 raised to 2 [1, 14]: 1/9 (11%) | Number of patients: skin GL-3 Score 2 unchanged [1, 14]: 8/9 (89%) | Number of patients: skin GL-3 Score 1 raised to 2 [1, 15]: 1/9 (11%) | Number of patients: skin GL-3 Score 2 unchanged [1, 15]: 8/9 (89%) | Number of patients: skin GL-3 Score 1 raised to 2 [1, 16]: 1/6 (17%) | Number of patients: skin GL-3 Score 2 dropped to 1 [1, 16]: 1/6 (17%) | Number of patients: skin GL-3 Score 2 dropped to 1.5 [1, 16]: 1/6 (17%) | Number of patients: skin GL-3 Score 2 unchanged [1, 16]: 3/6 (50%) | Number of patients: skin GL-3 Score 1 unchanged [1, 17]: 1/6 (17%) | Number of patients: skin GL-3 Score 2 dropped to 1.5 [1, 17]: 1/6 (17%) | Number of patients: skin GL-3 Score 2 unchanged [1, 17]: 4/6 (67%) | Number of patients: skin GL-3 Score 1.5 raised to 2 [1, 18]: 2/9 (22%) | Number of patients: skin GL-3 Score 2 unchanged [1, 18]: 7/9 (78%) | Number of patients: skin GL-3 Score 1.5 unchanged [1, 19]: 2/9 (22%) | Number of patients: skin GL-3 Score 2 unchanged [1, 19]: 7/9 (78%) | Number of patients: skin GL-3 Score 1.5 raised to 2 [1, 20]: 1/5 (20%) | Number of patients: skin GL-3 Score 2 unchanged [1, 20]: 4/5 (80%) | Number of patients: skin GL-3 Score 1.5 raised to 2 [1, 21]: 1/6 (17%) | Number of patients: skin GL-3 Score 2 dropped to 1 [1, 21]: 1/6 (17%) | Number of patients: skin GL-3 Score 2 dropped to 1.5 [1, 21]: 1/6 (17%) | Number of patients: skin GL-3 Score 2 unchanged [1, 21]: 3/6 (50%) | GM3 in CSF ([2]; 15 mg/day + imiglucerase, 4, 26 and 52 weeks, the four of six patients measurable at baseline): undetectable | CHITO in CSF, percent change from baseline [2, 22]: −5% and +11% and +9% and −6% (2×) | CHITO in Serum, percent change from baseline [2, 22]: −11% and +8% and −7% and −12% and −1% | GM3 in CSF, percent change from baseline [2, 22]: −51% and −59% (2×) and 0% | GM3 in Plasma, percent change from baseline [2, 22]: −70% and −63% and −65% and −62% and −47% | GPNMB in CSF, percent change from baseline [2, 22]: −63% and +30% and +9% and −6% and −2% | CHITO in CSF, percent change from baseline [2, 23]: −10% and −11% and +20% and −1% and +68% | CHITO in Serum, percent change from baseline [2, 23]: −43% and −55% and −1% and +98% and −11% | GM3 in CSF, percent change from baseline [2, 23]: −51% and 0% (2×) and −59% (2×) | GM3 in Plasma, percent change from baseline [2, 23]: −86% and −69% and −74% and −72% and +10% | GPNMB in CSF, percent change from baseline [2, 23]: −14% and 0% and +45% and +10% and −8% | CSF concentrations of ceramide, CHITO or GPNMB ([2]; 15 mg/day + imiglucerase, after 52 weeks): no significant changes | CL/F, Geometric mean [3, 24]: 6.3 L/h | CL/F, Mean [3, 24]: 6.43 L/h | CL/F, Geometric mean [3, 25]: 5.8 L/h | CL/F, Mean [3, 25]: 5.86 L/h | CL/F, Geometric mean [3, 26]: 5.6 L/h | CL/F, Mean [3, 26]: 5.85 L/h | Cmax, Geometric mean [3, 26]: 50.7 ng/mL | CL/F, Geometric mean [3, 27]: 5.0 L/h | CL/F, Mean [3, 27]: 5.18 L/h | CL/F, Geometric mean [3, 28]: 5.5 L/h | CL/F, Mean [3, 28]: 5.75 L/h | CL/F, Geometric mean [3, 29]: 5.3 L/h | CL/F, Mean [3, 29]: 5.38 L/h | CL/F, Geometric mean [3, 30]: 5.6 L/h | CL/F, Mean [3, 30]: 5.80 L/h | Tmax [3, 27]: 5 h | Tmax [3, 29]: 3 h | Mean difference in time taken to complete Trail B minus Trail A ([4]; 52 weeks, SD=54.3): 66.2 s | Patients with a TMT-A reduction, excluding Patient 5 ([4]; Week 52): four of five | Patients with a TMT-B reduction, excluding Patient 5 ([4]; Week 52): five of five | Patients with a reduction in the (TMT B−TMT A) time ([4]; Week 52): 5 of 6 | Patients with an improvement in Trail B minus Trial A, excluding Patient 5 ([4]; Week 52): four of five | Patients with reduction in time taken to complete Trail A ([4]; Week 52): Four of six | Patients with reduction in time taken to complete Trail B ([4]; Week 52): six of six
